The values below come from patent US10781185B2, “Heterocyclic compounds for the inhibition of PASK” (BioEnergenix LLC, priority 2009, dated 2020).

Bounds are passed on as bounds.

In assay [1] the test system is Sprague Dawley rats on a high fructose diet. Kind of assay: Rat High Fructose Model with Fast/Re-Feed. The format is in vivo. On the procedure:
Rat High Fructose Model with Fast/Re-Feed
Another standard model of human hyperlipidemia and insulin resistance is the rat fed a high fructose diet for several weeks (33). Additionally, since hepatic lipid synthesis is known to be regulated by food consumption, the fast/reefed cycle of Horton et al. (32) was incorporated into the chronic high fructose diet model. A compound disclosed above was evaluated in this model as an agent to restore insulin sensitivity and lower blood lipids.
Eight week old male Sprague Dawley rats were purchased from Harlan, Inc. The rats weighed 200-225 g upon arrival and were divided into groups as detailed in Table 2 and were immediately placed on a high fructose diet (60% kcal fructose; Open Source Diet # D00111301) ad libitum for three weeks. During the last week of feeding the high fructose diet, the rats were dosed with vehicle (5% solutol, 8% β cyclo-dextrin), subject compound at 30 mg/kg or 100 mg/kg or the control compound at 30 mg/kg by oral gavage once daily for 7 days. On the final day, all animals were placed on a […] followed by a 12 hour re-feed period on the high fructose diet ad libitum.
Body weights were monitored throughout the protocol. After completing the fast or fast/re-feed conditions, the rats were given avertin for anesthesia by intraperitoneal administration. Whole blood was collected by cardiac puncture and the rats were terminated by cervical dislocation. Livers were collected surgically, weighed and immediately frozen in liquid nitrogen. The blood was placed in Li-heparin treated tubes, centrifuged to collect plasma and the plasma frozen.
The plasma was analyzed by standard colorimetric assays for glucose, insulin, triglycerides and cholesterol.

For assay [2], the system named is C57Bl6 mice fed a high fat diet. Kind of assay: Mouse High Fat Dietary Model with fast/re-feed. Type of assay: in vivo. The procedure: Mouse High Fat Dietary Model
A standard model of human hyperlipidemia and insulin resistance is the mouse fed a high fat diet for several weeks (31, 33). Additionally, since hepatic lipid synthesis is known to be regulated by food consumption, the fast/re-feed cycle of Horton et al. (32) was incorporated into the chronic high fat diet model. The compound was evaluated in this model as an agent to restore insulin sensitivity and lower blood lipids. The chronic high fat diet was fed to mice to simulate a standard Western diet which is elevated in calories from high fat and carbohydrate intake. This and similar models of dietary induced obesity, insulin insensitivity and elevated serum lipids and cholesterol are used as mouse and rat models of human pathology including hyperlipidemia, type II diabetes, atherosclerosis, obesity, cardiovascular and liver disease. These models have been used as excellent predictors of efficacy in human clinical trials (PPAR and FXR agonists).
The farnesoid X receptor (FXR) is a ligand-activated transcription factor and a member of the nuclear receptor superfamily. […] While the mechanism of action of FXR agonists is clearly distinct from PASK inhibition, WAY-362450 has been used as a positive control compound producing physiologically beneficial changes in glucose and lipid metabolism resembling inhibition of PASK. Throughout these in vivo assays, WAY-362450 has been used as a control compound, and will be referred to as such.
Male C57Bl6 mice were obtained from Jackson Laboratories and had been fed a high fat diet (60% kcal fat) for eight weeks. The mice were fed an identical high fat diet (Research Diet D12492) upon arrival and during the study. All mice were treated with the subject compound at 30 or 100 mg/kg, control compound (WAY-362450) at 30 mg/kg or vehicle by oral gavage daily for three days. On the final day, 10 animals from each group began an 24 hour fast and then were sacrificed (fasted groups 1a,2a,3a,4a). Alternatively, 10 animals from each group underwent a 24 hour fast followed by a 12 hour re-feed period with the same high fat diet ad libitum and then were sacrificed (re-fed groups 1b,2b,3b,4b).
Body weights were monitored at the start and end of the protocol. After completing the fast or fast/re-feed conditions, the mice were given avertin for anesthesia by intraperitoneal administration. Whole blood was collected by cardiac puncture and the mice were terminated by cervical dislocation. Livers were collected surgically, weighed and immediately frozen in liquid nitrogen. The blood was placed in Li-heparin treated tubes, centrifuged to collect plasma and the plasma frozen.
The plasma was analyzed by standard colorimetric assays for glucose, insulin, triglycerides and cholesterol. Frozen liver samples were pulverized and extracted in ethanolic KOH and analyzed for liver triglycerides and cholesterol.

Assay [3] concerns the target PASK (UniProt # Q96RG2; human recombinant N-terminal GST tagged construct, residues 879-1323) (Homo sapiens (Human), UniProt Q96RG2). Kind of assay: PASK ATP Radiochemical Assay. The format is biochemical. As to conditions: 33P-ATP radiochemical, Myelin Basic Protein substrate; read-out: IC50 Kinase Domain. The procedure: PASK ATP Radiochemical Assay
Test compounds in DMSO are then added and the mixture, followed by delivery of ^33P-ATP (specific activity 0.01 μCi/μl final) to initiate the reaction. […] The entire reaction mixture is washed through onto a P81 Phosphocellulose paper and washed three times for 10 minutes in 75 mM phosphoric acid and once in methanol prior to drying and scintillation counting.

Assay [4] addresses PASK (Homo sapiens (Human), UniProt Q96RG2). Kind of assay: PAS Kinase FRET Assay. As to conditions: TR-FRET, Ulight-peptide substrate; read-out: IC50 Kinase Domain. Type of assay: biochemical. The source says: PAS Kinase FRET Assay The aim of the FRET assay is to determine the inhibition potential of test compounds on targeted kinase. This assay platform provides a homogenous screening method for measuring kinase activity by quantitating the amount of phospho-substrate in solution following a kinase reaction. In the presence of kinase and ATP, the Ulight-peptide is phosphorylated and captured by an anti-phospho-substrate antibody, which brings the Eu chelate donor and Ulight acceptor dyes into close proximity. […] The contents of the plate were and incubated at RT for 1 h. The reaction was stopped by adding 5 μl of stop solution to each test well followed by mixing and incubation at RT for 10 minutes. 5 μl of detection mix (detection antibody diluted in detection buffer) was added; the contents of the plate were mixed and then incubated in the dark for 1 hour at RT. […] The results were graphed to calculate the EC50. Titration of ATP at the EC50 concentration of kinase to determine ATP Km,app. was performed using the following method. […] The contents of the plate were and incubated at RT for 1 h. The reaction was stopped by adding 5 μl of stop solution to each test well followed by mixing and incubation at RT for 10 minutes. 5 μl of detection mix (detection antibody diluted in detection buffer) was added; the contents of the plate were mixed and then incubated in the dark for 1 hour at RT. […] The results were graphed to calculate the EC50 as the ATP Km,app. […] If compound is not soluble under this condition, it was diluted to 3 mM. Kinase reaction buffer was prepared containing 10 mM MgCl2, 50 mM HEPES, 1 mM EGTA, 0.01% TWEEN-20, 2 mM DTT. […] As a positive control, 2.5 μl of positive compound was added to assay wells, and 2.5 μl of DMSO to assay wells as vehicle control. Kinase solution was prepared in reaction buffer at 2× final assay concentration. Kinase solution (5 μl) was added to each well of the assay plate. The substrate and ATP solution was prepared in kinase reaction buffer at 4× final assay concentration. The kinase reaction was started by adding 2.5 μl of substrate+ATP mix solution to each well of the assay plate. The plate is mixed on a plate shaker; then covered and allowed to react for 2 hours in the dark at 25° C. without shaking. The reaction was stopped by adding 5 μl of stop solution to each test well followed by mixing and incubation at RT for 10 minutes in the dark. 5 μl of detection mix (detection antibody diluted in detection buffer) was added; the contents of the plate were mixed and then incubated in the dark for 1 hour at RT.
(In TR-FRET formats the signal depends on donor and acceptor labels being close together.)

Setting [5] is: 30 mg/kg, 7 days, after fast and re-feed.

PASK (UniProt # Q96RG2; human recombinant N-terminal GST tagged construct, residues 879-1323) (Homo sapiens (Human), UniProt Q96RG2), sequence (Q96RG2 879-1323, stated change not applied): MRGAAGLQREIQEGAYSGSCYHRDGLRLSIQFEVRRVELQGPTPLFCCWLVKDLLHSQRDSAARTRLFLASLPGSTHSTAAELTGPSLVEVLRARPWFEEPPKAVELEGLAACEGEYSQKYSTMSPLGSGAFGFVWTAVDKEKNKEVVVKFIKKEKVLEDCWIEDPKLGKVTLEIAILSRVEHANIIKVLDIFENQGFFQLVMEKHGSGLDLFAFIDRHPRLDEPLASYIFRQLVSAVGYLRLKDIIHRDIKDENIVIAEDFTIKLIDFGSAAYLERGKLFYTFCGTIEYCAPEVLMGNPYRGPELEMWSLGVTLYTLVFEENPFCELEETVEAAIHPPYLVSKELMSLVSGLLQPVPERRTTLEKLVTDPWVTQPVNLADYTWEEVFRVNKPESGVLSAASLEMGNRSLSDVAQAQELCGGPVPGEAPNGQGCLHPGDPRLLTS
PASK (Homo sapiens (Human), UniProt Q96RG2), sequence (Q96RG2 999-1251): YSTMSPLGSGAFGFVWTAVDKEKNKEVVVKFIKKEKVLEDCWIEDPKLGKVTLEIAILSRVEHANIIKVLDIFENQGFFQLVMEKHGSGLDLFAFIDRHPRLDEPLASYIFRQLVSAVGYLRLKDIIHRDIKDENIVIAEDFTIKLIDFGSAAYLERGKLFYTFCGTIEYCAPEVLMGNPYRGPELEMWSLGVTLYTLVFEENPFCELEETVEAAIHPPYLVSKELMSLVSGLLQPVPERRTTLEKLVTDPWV

As to `CC(C)OC(=O)C1=CN(C(=O)c2ccc(F)c(F)c2)CC(C)(C)c2c1[nH]c1ccccc21` [WAY-362450, reference compound], the “body weight change relative to the Vehicle group” value in assay [1] (30 mg/kg oral gavage once daily for 7 days, FIG. 1) is listed as “significant increase in body weight”. In assay [1] (30 mg/kg, 7 days), the “increase in plasma cholesterol vs vehicle” value is listed as 17% and the “reduction in plasma triglycerides vs vehicle” value is 68%. Moreover, in assay [1] (setting [5]), the “decrease in plasma glucose compared to vehicle” value was “did not alter plasma glucose concentrations” and the “reduction in plasma insulin levels” value turned out to be 63.2%. Moreover, the “effects on liver weight” value in assay [2] (30 mg/kg) is listed as “identical to those of the subject compound at the same dose”. Moreover, the “increase in plasma glucose vs vehicle” value in assay [2] (fast and re-feed mice, 30 mg/kg) was 7.6%. In assay [2] (fast/re-feed mice, 30 mg/kg oral gavage daily for three days), the “reduction in body weight vs vehicle” value turned out to be 6.5%. For the same compound, the “decrease in plasma insulin vs vehicle” value in assay [2] (fasted and re-fed mice, 30 mg/kg) amounted to 22%. In assay [2] (fasted only mice, 30 mg/kg), the “decrease in plasma glucose vs vehicle” value is on record as 19% and the “decrease in plasma insulin vs vehicle” value amounted to 39%. Moreover, the “decrease in body weight vs vehicle” value in assay [2] (fasted only mice, 30 mg/kg oral gavage daily for three days) stood at 4%.
Regarding `CC(C)N(C)c1nc2cc(C(=O)O)ccc2nc1-c1ccc(F)cc1` [Example 57, 2-(4-Fluorophenyl)-3-(isopropyl(methyl)amino)quinoxaline-6-carboxylic acid], the values for the IC50 in assay [3] and in assay [4] were less than 10 µM and no more than 10 µM, respectively.
The corresponding values for `CC1(C)CCCN(c2nc3cc(C(=O)O)ccc3nc2-c2ccc(F)cc2)C1` [Example 79, 3-(3,3-Dimethylpiperidin-1-yl)-2-(4-fluorophenyl)quinoxaline-6-carboxylic acid] are less than 10 µM and no more than 10 µM.
The corresponding values for `CC(C)N(C)c1nc2cc(C(=O)O)ccc2nc1-c1ccc2c(c1)OCCO2` [Example 81, 2-(2,3-Dihydrobenzo[b][1,4]dioxin-6-yl)-3-(isopropyl(methyl)amino)quinoxaline-6-carboxylic acid] are less than 10 µM and no more than 10 µM.
For `COc1ccc2c(c1)CCCN2c1nc2cc(C(=O)O)ccc2nc1-c1ccccc1` [Example 66, 3-(6-Methoxy-3,4-dihydroquinolin-1(2H)-yl)-2-phenylquinoxaline-6-carboxylic acid], in that order: less than 10 µM and no more than 10 µM.
Take `CC(C)N(C)c1nc2cc(C(=O)O)ccc2nc1-c1ccccc1` [Example 43, 3-(Isopropyl(methyl)amino)-2-phenylquinoxaline-6-carboxylic acid]: the IC50 (usually the concentration at which inhibition is half-maximal) in assay [3] is less than 10 µM; in assay [4], no more than 10 µM.
For `CC(C)N(C)c1nc2cc(C(=O)O)ccc2nc1-c1ccncc1` [Example 87, 3-(Isopropyl(methyl)amino)-2-(pyridin-4-yl)quinoxaline-6-carboxylic acid], in that order: less than 10 µM and no more than 10 µM.
The corresponding values for `O=C(O)c1ccc2nc(-c3ccc(F)cc3)c(N3CCCCCC3)nc2c1` [Example 76, 3-(Azepan-1-yl)-2-(4-fluorophenyl)quinoxaline-6-carboxylic acid] are less than 10 µM and no more than 10 µM.
The corresponding values for `O=C(O)c1ccc2nc(-c3ccccc3)c(N3CCCc4ccccc43)nc2c1` [Example 40, 3-(3,4-Dihydroquinolin-1(2H)-yl)-2-phenylquinoxaline-6-carboxylic acid] are less than 10 µM and no more than 10 µM.
Regarding `CC1CCCN(c2nc3cc(C(=O)O)ccc3nc2-c2ccc(F)cc2)C1` (centres unmarked) [Example 80, 2-(4-Fluorophenyl)-3-(3-methylpiperidin-1-yl)quinoxaline-6-carboxylic acid], the half-inhibitory concentration (IC50) in assay [3] is less than 10 µM; in assay [4], no more than 10 µM.
For `O=C(O)c1ccc2nc(-c3ccccc3)c(N3CCC[C@@H]3CO)nc2c1` [Example 52, (R)-3-(2-(Hydroxymethyl)pyrrolidin-1-yl)-2-phenylquinoxaline-6-carboxylic acid], in that order: less than 10 µM and no more than 10 µM.
The corresponding values for `COCC1CCCN(c2nc3cc(C(=O)O)ccc3nc2-c2ccc(F)cc2)C1` (centres unmarked) [Example 78, 2-(4-Fluorophenyl)-3-(3-(methoxymethyl)piperidin-1-yl)quinoxaline-6-carboxylic acid] are less than 10 µM and no more than 10 µM.
For `COC[C@H]1CCCN1c1nc2cc(C(=O)O)ccc2nc1-c1ccccc1` [Example 51, (R)-3-(2-(Methoxymethyl)pyrrolidin-1-yl)-2-phenylquinoxaline-6-carboxylic acid], in that order: less than 10 µM and no more than 10 µM.
As for `CN(c1nc2cc(C(=O)O)ccc2nc1-c1ccccc1)C1CC1` [Example 46, 3-(Cyclopropyl(methyl)amino)-2-phenylquinoxaline-6-carboxylic acid], the IC50 in assay [3] is less than 10 µM; in assay [4], no more than 10 µM.
